Measured values published in ChEMBL document CHEMBL2407040, “Discovery and optimization of 7-aminofuro[2,3-c]pyridine inhibitors of TAK1” (Bioorg Med Chem Lett, 2013).
pIC50: −log10 of the molar value.

Experiments:
[1] = target: T1, Mitogen-activated protein kinase kinase kinase 7 (Homo sapiens, UniProt O43318); assay: Inhibition of TAK1 in human HCT116 cells assessed as inhibition of TNF-alpha-stimulated JNK phosphorylation; type: cell-based, HCT-116
T1 sequence (O43318 whole entry): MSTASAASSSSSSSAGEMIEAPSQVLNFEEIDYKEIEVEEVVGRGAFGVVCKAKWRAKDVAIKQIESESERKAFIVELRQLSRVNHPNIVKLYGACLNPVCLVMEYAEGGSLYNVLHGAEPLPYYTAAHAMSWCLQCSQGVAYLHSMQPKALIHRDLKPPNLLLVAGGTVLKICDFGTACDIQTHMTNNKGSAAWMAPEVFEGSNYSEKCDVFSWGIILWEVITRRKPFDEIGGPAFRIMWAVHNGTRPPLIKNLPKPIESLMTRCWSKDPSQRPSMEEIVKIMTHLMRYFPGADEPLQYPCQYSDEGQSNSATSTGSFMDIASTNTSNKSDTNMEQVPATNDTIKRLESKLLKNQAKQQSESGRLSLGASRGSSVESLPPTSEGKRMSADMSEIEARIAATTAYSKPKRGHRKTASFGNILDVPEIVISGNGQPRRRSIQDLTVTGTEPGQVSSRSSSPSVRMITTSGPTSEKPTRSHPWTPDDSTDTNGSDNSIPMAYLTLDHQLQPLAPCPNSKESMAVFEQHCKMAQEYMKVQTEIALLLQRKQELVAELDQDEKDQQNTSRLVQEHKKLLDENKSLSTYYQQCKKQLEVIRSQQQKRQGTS

[2] = target: TAK1/TAB1 (Homo sapiens, UniProt O43318); assay: Inhibition of truncated TAK1-TAB1(unknown origin) using MKK7 as substrate by ALPHAScreen assay in presence of ATP; type: protein-complex assay
Sequence of TAK1/TAB1 (Q15750 whole entry, one chain of several, the tested form may be a part): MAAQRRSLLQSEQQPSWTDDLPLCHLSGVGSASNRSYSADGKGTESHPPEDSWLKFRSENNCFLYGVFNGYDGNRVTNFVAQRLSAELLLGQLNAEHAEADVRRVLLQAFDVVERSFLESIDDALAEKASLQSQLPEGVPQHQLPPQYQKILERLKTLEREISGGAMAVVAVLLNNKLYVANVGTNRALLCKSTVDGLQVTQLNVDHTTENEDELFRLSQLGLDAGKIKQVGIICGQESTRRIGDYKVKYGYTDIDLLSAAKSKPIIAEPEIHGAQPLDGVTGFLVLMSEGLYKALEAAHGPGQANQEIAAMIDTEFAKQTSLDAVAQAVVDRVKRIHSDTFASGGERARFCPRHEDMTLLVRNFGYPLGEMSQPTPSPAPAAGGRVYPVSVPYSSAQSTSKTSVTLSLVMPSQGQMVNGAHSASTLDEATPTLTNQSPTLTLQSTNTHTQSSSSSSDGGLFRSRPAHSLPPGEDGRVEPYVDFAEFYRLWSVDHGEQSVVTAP

[3] = Oral bioavailability in mouse at 20 mg/kg; type: ADME, organism-based; conditions: in vivo
[4] = AUC (0 to infinity) in mouse at 20 mg/kg, po; type: ADME, organism-based; set-up: time infinity, dose 20 mg/kg, route oral; conditions: plasma
[5] = Volume of distribution at steady state in mouse at 2 mg/kg, iv; type: ADME, organism-based; set-up: dose 2 mg/kg, route intravenous; conditions: in vivo, read-out: Vdss
[6] = Metabolic stability in mouse liver microsomes assessed as extraction ratio; type: ADME, Microsome; conditions: read-out: ERH
[7] = Clearance in mouse at 2 mg/kg, iv; type: ADME, organism-based; set-up: dose 2 mg/kg, route intravenous; conditions: in vivo
[8] = Cmax in mouse at 20 mg/kg, po; type: ADME, organism-based; set-up: dose 20 mg/kg, route oral; conditions: in vivo
[9] = Half life in mouse at 2 mg/kg, iv; type: ADME, organism-based; set-up: dose 2 mg/kg, route intravenous; conditions: in vivo
[10] = Metabolic stability in human liver microsomes assessed as extraction ratio; type: ADME, Microsome; conditions: read-out: ERH
[11] = AUC (0 to infinity) in mouse at 2 mg/kg, iv; type: ADME, organism-based; set-up: time infinity, dose 2 mg/kg, route intravenous; conditions: plasma
[12] = Permeability of the compound by PAMPA; type: ADME; conditions: read-out: permeability

Row | SMILES | pIC50 [1] | pIC50 [2] | further results
1 | CC(=O)N1CCC(n2cc(-c3cnc(N)c4oc(-c5cccc(N(C)C)c5)cc34)cn2)CC1 | 6.16 | 5.62 | 
2 | CC(=O)N1CCC(n2cc(-c3cnc(N)c4oc(-c5ccc(OC(F)(F)F)cc5)cc34)cn2)CC1 | 5.10 | 5.46 | 
3 | CC(=O)N1CCC(n2cc(-c3cnc(N)c4oc(-c5ccc(C#N)cc5)cc34)cn2)CC1 | 5.55 | 5.60 | 
4 | CC(=O)N1CCC(n2cc(-c3cnc(N)c4oc(-c5ccc(C(=O)N(C)C)cc5)cc34)cn2)CC1 |  | < 4.52 | 
5 | CC(=O)N1CCC(n2cc(-c3cnc(N)c4oc(-c5ccc(CO)cc5)cc34)cn2)CC1 | 5.36 | 5.55 | 
6 | CC(=O)N1CCC(n2cc(-c3cnc(N)c4oc(-c5ccc(CC#N)cc5)cc34)cn2)CC1 | 5.72 | 5.82 | 
7 | CC(=O)N1CCC(n2cc(-c3cnc(N)c4oc(-c5cccc6cnsc56)cc34)cn2)CC1 | 7.36 | 7.64 | bioavailability [3]: 11%; AUC(0-inf) [4]: 0.285 µg·h/mL; Vd [5]: 2.5 L/kg; hepatic extraction ratio [6]: 0.84; clearance [7]: 7.68 L/h/kg; Cmax [8]: 1.6 µM; half-life [9]: 30 min; hepatic extraction ratio [10]: 0.73; AUC(0-inf) [11]: 0.261 µg·h/mL
8 | CC(=O)N1CCC(n2cc(-c3cnc(N)c4oc(-c5cccc6ncsc56)cc34)cn2)CC1 | 8.00 | 7.89 | hepatic extraction ratio [6]: 0.68; hepatic extraction ratio [10]: 0.62
9 | CC(=O)N1CCC(n2cc(-c3cnc(N)c4oc(-c5cccc6nnsc56)cc34)cn2)CC1 | 7.92 | 8.40 | hepatic extraction ratio [6]: 0.7; hepatic extraction ratio [10]: 0.68
10 | CC(=O)N1CCC(n2cc(-c3cnc(N)c4oc(-c5csc6cnccc56)cc34)cn2)CC1 | 6.96 | 7.52 | hepatic extraction ratio [6]: 0.72; hepatic extraction ratio [10]: 0.68
11 | CC(=O)N1CCC(n2cc(-c3cnc(N)c4oc(-c5cn(C)c6cnccc56)cc34)cn2)CC1 | 6.47 | 7.74 | hepatic extraction ratio [6]: 0.91; hepatic extraction ratio [10]: 0.64
12 | CC(=O)N1CCC(n2cc(-c3cnc(N)c4oc(-c5cccc6ccccc56)cc34)cn2)CC1 | 5.92 | 6.00 | hepatic extraction ratio [6]: 0.77; hepatic extraction ratio [10]: 0.66
13 | CC(=O)N1CCC(n2cc(-c3cnc(N)c4oc(-c5csc6ccccc56)cc34)cn2)CC1 | 6.36 | 6.47 | hepatic extraction ratio [6]: 0.85; hepatic extraction ratio [10]: 0.68
14 | CC(=O)N1CCC(n2cc(-c3cnc(N)c4oc(-c5cnc6cnccn56)cc34)cn2)CC1 |  | 5.85 | hepatic extraction ratio [6]: 0.52; hepatic extraction ratio [10]: 0
15 | Nc1ncc(-c2cnn(C3CCNCC3)c2)c2cc(-c3ccccc3)oc12 |  | 5.57 | Papp [12]: < 10 nm/s
16 | Nc1ncc(-c2cnn(C3CCNCC3)c2)c2cc(-c3cccc4ccsc34)oc12 |  | 5.92 | Papp [12]: < 10 nm/s
17 | CC(=O)N1CCC(n2cc(-c3cnc(N)c4oc(-c5cccc(C#N)c5)cc34)cn2)CC1 | 6.43 | 6.60 | 
18 | CC(=O)N1CCC(n2cc(-c3cnc(N)c4oc(-c5cccc(C(F)(F)F)c5)cc34)cn2)CC1 | 5.80 | 5.55 | 
19 | CC(=O)c1cccc(-c2cc3c(-c4cnn(C5CCN(C(C)=O)CC5)c4)cnc(N)c3o2)c1 | 6.00 | 5.55 | 
20 | CC(=O)N1CCC(n2cc(-c3cnc(N)c4oc(-c5cccc(C(N)=O)c5)cc34)cn2)CC1 | 5.51 | 6.28 | 

Row | SMILES | pIC50 [1] | pIC50 [2] | further results
21 | CC(=O)N1CCC(n2cc(-c3cnc(N)c4oc(-c5cccc(CN)c5)cc34)cn2)CC1 | 5.40 | 6.10 | 
22 | CC(=O)N1CCC(n2cc(-c3cnc(N)c4oc(-c5cccc(CO)c5)cc34)cn2)CC1 | 6.33 | 6.07 | 
23 | CSc1ccc(-c2cc3c(-c4cnn(C5CCN(C(C)=O)CC5)c4)cnc(N)c3o2)cc1 | 5.28 | 4.76 | 
24 | CC(=O)N1CCC(n2cc(-c3cnc(N)c4oc(-c5ccc(S(C)(=O)=O)cc5)cc34)cn2)CC1 | < 4.70 | 4.59 | 
25 | CC(=O)N1CCC(n2cc(-c3cnc(N)c4oc(-c5ccc(N)cc5)cc34)cn2)CC1 | 6.00 | 5.74 | 
26 | CC(=O)N1CCC(n2cc(-c3cnc(N)c4oc(-c5ccc(NS(C)(=O)=O)cc5)cc34)cn2)CC1 |  | 5.31 | 
27 | CC(=O)N1CCC(n2cc(-c3cnc(N)c4oc(-c5ccc(O)cc5)cc34)cn2)CC1 | 6.30 | 6.57 | 
28 | CC(=O)N1CCC(n2cc(-c3cnc(N)c4oc(-c5cnsc5)cc34)cn2)CC1 |  | 6.06 | 
29 | CSc1ccccc1-c1cc2c(-c3cnn(C4CCN(C(C)=O)CC4)c3)cnc(N)c2o1 | 6.30 | 6.37 | 
30 | CC(=O)Nc1ccccc1-c1cc2c(-c3cnn(C4CCN(C(C)=O)CC4)c3)cnc(N)c2o1 |  | < 4.52 | 
31 | CC(=O)N1CCC(n2cc(-c3cnc(N)c4oc(-c5ccccc5C#N)cc34)cn2)CC1 | 5.77 | 6.25 | 
32 | CC(=O)N1CCC(n2cc(-c3cnc(N)c4oc(-c5ccccc5C(F)(F)F)cc34)cn2)CC1 |  | < 4.52 | 
33 | CC(=O)c1ccccc1-c1cc2c(-c3cnn(C4CCN(C(C)=O)CC4)c3)cnc(N)c2o1 | 5.51 | 5.27 | 
34 | CC(=O)N1CCC(n2cc(-c3cnc(N)c4oc(-c5ccccc5C(N)=O)cc34)cn2)CC1 | 5.35 | 5.22 | 
35 | CC(=O)N1CCC(n2cc(-c3cnc(N)c4oc(-c5ccccc5CO)cc34)cn2)CC1 | 5.82 | 6.12 | 
36 | COCc1ccccc1-c1cc2c(-c3cnn(C4CCN(C(C)=O)CC4)c3)cnc(N)c2o1 | 5.74 | 5.85 | 
37 | CC(=O)N1CCC(n2cc(-c3cnc(N)c4oc(-c5ccccc5CC#N)cc34)cn2)CC1 | 6.28 | 6.60 | 
38 | CSc1cccc(-c2cc3c(-c4cnn(C5CCN(C(C)=O)CC5)c4)cnc(N)c3o2)c1 | 5.92 | 5.37 | 
39 | CC(=O)N1CCC(n2cc(-c3cnc(N)c4oc(-c5cccc(S(C)(=O)=O)c5)cc34)cn2)CC1 | 5.96 | 5.31 | 
40 | CC(=O)N1CCC(n2cc(-c3cnc(N)c4oc(-c5cccc(S(N)(=O)=O)c5)cc34)cn2)CC1 |  | 5.74 | 

Row | SMILES | pIC50 [1] | pIC50 [2] | further results
41 | CC(=O)N1CCC(n2cc(-c3cnc(N)c4oc(-c5cccc(S(=O)(=O)N(C)C)c5)cc34)cn2)CC1 | 5.96 | 5.85 | 
42 | CC(=O)N1CCC(n2cc(-c3cnc(N)c4oc(-c5cccc([N+](=O)[O-])c5)cc34)cn2)CC1 | 6.70 | 7.05 | 
43 | CC(=O)N1CCC(n2cc(-c3cnc(N)c4oc(-c5cccc(N)c5)cc34)cn2)CC1 | 6.29 | 6.11 | 
44 | CC(=O)Nc1cccc(-c2cc3c(-c4cnn(C5CCN(C(C)=O)CC5)c4)cnc(N)c3o2)c1 | 5.05 | 5.49 | 
45 | CC(=O)N1CCC(n2cc(-c3cnc(N)c4oc(-c5cccc(O)c5)cc34)cn2)CC1 | 6.21 | 7.21 | 
46 | COc1cccc(-c2cc3c(-c4cnn(C5CCN(C(C)=O)CC5)c4)cnc(N)c3o2)c1 | 5.92 | 5.74 | 
47 | COCCOc1cccc(-c2cc3c(-c4cnn(C5CCN(C(C)=O)CC5)c4)cnc(N)c3o2)c1 | 5.57 | 5.49 | 
48 | CC(=O)N1CCC(n2cc(-c3cnc(N)c4oc(-c5cccc(OC(F)(F)F)c5)cc34)cn2)CC1 | 5.74 | 5.46 | 
49 | CC(=O)N1CCC(n2cc(-c3cnc(N)c4oc(-c5ccccc5)cc34)cn2)CC1 | 6.28 | 5.96 | 
50 | CC(=O)N1CCC(n2cc(-c3cnc(N)c4oc(-c5cccnc5)cc34)cn2)CC1 |  | 6.15 | 
51 | CC(=O)N1CCC(n2cc(-c3cnc(N)c4oc(C5=CCNCC5)cc34)cn2)CC1 |  | 6.10 | 
52 | CC(=O)N1CCC(n2cc(-c3cnc(N)c4oc(C5=CCCCC5)cc34)cn2)CC1 |  | 6.34 | 
53 | CC(=O)N1CCC(n2cc(-c3cnc(N)c4oc(C5CCCCC5)cc34)cn2)CC1 |  | 6.19 | 
54 | CC(=O)N1CCC(n2cc(-c3cnc(N)c4oc(C5=CCCC5)cc34)cn2)CC1 |  | 5.92 | 
55 | CC(=O)N1CCC(n2cc(-c3cnc(N)c4oc(C5CCCC5)cc34)cn2)CC1 |  | 5.68 | 
56 | CC(=O)N1CCC(n2cc(-c3cnc(N)c4oc(-c5ccsc5)cc34)cn2)CC1 |  | 6.32 | 
57 | CC(=O)N1CCC(n2cc(-c3cnc(N)c4oc(-c5cn[nH]c5)cc34)cn2)CC1 | 5.04 | 6.89 | 
58 | CC(=O)N1CCC(n2cc(-c3cnc(N)c4oc(-c5cnn(C)c5)cc34)cn2)CC1 |  | 5.80 | 
59 | CC(=O)N1CCC(n2cc(-c3cnc(N)c4oc(-c5cnco5)cc34)cn2)CC1 |  | 5.92 | 
